In US10940139B2, “Compounds that interact with the Ras superfamily for the treatment of cancers, inflammatory diseases, rasopathies, and fibrotic disease” (Shy Therapeutics LLC, priority 2017, dated 2021):
Like-named read-outs stand apart in the source and are kept apart here.

What was measured:
Assay in all cases: Ras GTP binding domain inhibition assay (labeled GTP)
[1] = target: KRas G12D/Q61H double mutant (Homo sapiens (Human), UniProt P01116, G12D/Q61H); conditions: for inhibition at 20 µM: 20 μM compound; for IC50: serial dilution, read-out: KRas G12D Q61H (classes E-H, IC50)
Sequence of KRas G12D/Q61H double mutant (P01116-2 other isoform, or with tags, fused parts or gaps G12D/Q61H): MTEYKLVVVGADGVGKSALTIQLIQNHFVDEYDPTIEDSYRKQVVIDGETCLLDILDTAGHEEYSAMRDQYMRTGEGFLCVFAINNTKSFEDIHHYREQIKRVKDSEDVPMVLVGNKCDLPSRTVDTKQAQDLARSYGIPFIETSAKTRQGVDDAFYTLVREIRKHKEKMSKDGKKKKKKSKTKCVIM
Procedure, shortened: (§1)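 His-tagged KRas protein (3-10 μg/ml) was captured overnight at 4° C on nickel-coated wells in 50 mM Tris pH 7.5, 1 mM MgCl2, 1 mM DTT. Bound labeled GTP was read by fluorescence after washing.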

KRas G12C mutant = KRas G12C mutant (Homo sapiens (Human), UniProt P01116, G12C); conditions: 20 μM compound
Sequence of KRas G12C mutant (P01116-2 other isoform, or with tags, fused parts or gaps G12C): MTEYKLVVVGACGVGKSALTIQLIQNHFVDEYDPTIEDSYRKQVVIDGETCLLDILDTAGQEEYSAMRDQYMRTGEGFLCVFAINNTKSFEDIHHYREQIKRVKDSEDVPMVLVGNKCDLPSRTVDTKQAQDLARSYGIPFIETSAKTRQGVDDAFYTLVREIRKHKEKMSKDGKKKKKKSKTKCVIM
Procedure, shortened: as §1

[2] = target: KRas G12C/Q61H double mutant (Homo sapiens (Human), UniProt P01116, G12C/Q61H); conditions: 20 μM compound
Sequence of KRas G12C/Q61H double mutant (P01116-2 other isoform, or with tags, fused parts or gaps G12C/Q61H): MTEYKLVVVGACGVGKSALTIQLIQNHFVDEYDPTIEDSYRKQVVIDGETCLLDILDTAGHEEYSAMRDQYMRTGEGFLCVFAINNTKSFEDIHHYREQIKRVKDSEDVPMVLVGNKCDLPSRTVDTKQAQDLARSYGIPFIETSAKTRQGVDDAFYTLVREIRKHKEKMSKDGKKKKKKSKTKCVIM
Procedure, shortened: as §1

KRas wild type = KRas wild type (Homo sapiens (Human), UniProt P01116); conditions: 20 μM compound
Sequence of KRas wild type (P01116-2 other isoform, or with tags, fused parts or gaps): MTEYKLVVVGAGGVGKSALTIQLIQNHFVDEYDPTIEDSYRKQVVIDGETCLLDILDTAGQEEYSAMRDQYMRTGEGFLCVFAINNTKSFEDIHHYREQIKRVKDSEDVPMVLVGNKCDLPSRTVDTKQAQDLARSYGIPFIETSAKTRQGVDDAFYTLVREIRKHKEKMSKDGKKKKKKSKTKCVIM
Procedure, shortened: as §1

KRas Q61H mutant = KRas Q61H mutant (Homo sapiens (Human), UniProt P01116, Q61H); conditions: 20 μM compound
Sequence of KRas Q61H mutant (P01116-2 other isoform, or with tags, fused parts or gaps Q61H): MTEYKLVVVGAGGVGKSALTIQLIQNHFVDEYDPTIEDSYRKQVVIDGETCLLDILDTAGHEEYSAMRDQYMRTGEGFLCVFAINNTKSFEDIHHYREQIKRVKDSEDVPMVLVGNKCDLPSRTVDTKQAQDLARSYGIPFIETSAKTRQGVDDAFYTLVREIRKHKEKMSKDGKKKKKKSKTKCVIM
Procedure, shortened: as §1

KRas G12D mutant protein = KRas G12D mutant protein (Homo sapiens (Human), UniProt P01116, G12D); conditions: 20 μM compound
Sequence of KRas G12D mutant protein (P01116-2 other isoform, or with tags, fused parts or gaps G12D): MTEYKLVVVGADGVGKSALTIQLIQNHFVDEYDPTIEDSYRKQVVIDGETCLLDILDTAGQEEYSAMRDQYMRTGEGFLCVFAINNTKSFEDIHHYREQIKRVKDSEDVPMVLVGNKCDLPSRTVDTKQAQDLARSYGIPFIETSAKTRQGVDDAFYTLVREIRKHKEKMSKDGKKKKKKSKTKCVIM

[3] = read-out: % Inhibition at 20 μM KRas G12D Q61H
[4] = read-out: % Inhibition at 20 μM KRas G12C
[5] = read-out: % Inhibition at 20 μM KRas G12C Q61H
[6] = read-out: % Inhibition at 20 μM KRas wild type
[7] = read-out: % Inhibition at 20 μM KRas Q61H
[8] = read-out: % Inhibition at 20 μM KRas G12D
[9] = KRas G12D/Q61H double mutant, read-out: % Inhibition at 20 μM of K-Ras mutant and wild-type protein, KRas G12D Q61H
[10] = KRas G12C, read-out: % Inhibition at 20 μM of K-Ras mutant and wild-type protein, KRas G12C
[11] = KRas G12C/Q61H double mutant, read-out: % Inhibition at 20 μM of K-Ras mutant and wild-type protein, KRas G12C Q61H
[12] = KRas wild type, read-out: % Inhibition at 20 μM of K-Ras mutant and wild-type protein, KRas wild type
[13] = KRas Q61H, read-out: % Inhibition at 20 μM of K-Ras mutant and wild-type protein, KRas Q61H
[14] = KRas G12D, read-out: % Inhibition at 20 μM of K-Ras mutant and wild-type protein, KRas G12D

Compound	inhibition at 20 µM [1, 3] [%]	inhibition at 20 µM (KRas G12C mutant; [4]) [%]	inhibition at 20 µM [2, 5] [%]	inhibition at 20 µM (KRas wild type; [6]) [%]	inhibition at 20 µM (KRas Q61H mutant; [7]) [%]	inhibition at 20 µM (KRas G12D mutant protein; [8]) [%]	inhibition at 20 µM [1, 9] [%]	inhibition at 20 µM (KRas G12C mutant; [10]) [%]	inhibition at 20 µM [2, 11] [%]	inhibition at 20 µM (KRas wild type; [12]) [%]	inhibition at 20 µM (KRas Q61H mutant; [13]) [%]	inhibition at 20 µM (KRas G12D mutant protein; [14]) [%]	IC50 [1] [µM]
O=C(COCc1ccnc(O)c1)Nc1nc(-c2ccccn2)nc2sccc12 [drawing 2857]	51 to 75	25 to 50	51 to 75	25 to 50	51 to 75	25 to 50	–	–	–	–	–	–	–
Oc1cccc(-c2csc3c(O)nc(-c4ccccn4)nc23)n1 [drawing 3498]	–	–	–	–	–	–	51 to 75	25 to 50	51 to 75	51 to 75	76 to 100	25 to 50	–
CN(C)Cc1ccc(-c2csc3c(O)nc(-c4ccccn4)nc23)cc1F [drawing 2845]	76 to 100	25 to 50	76 to 100	51 to 75	76 to 100	76 to 100	–	–	–	–	–	–	–
Oc1nc(-c2ccccn2)nc2c(-c3ccccc3F)csc12 [drawing 2868]	51 to 75	25 to 50	51 to 75	51 to 75	51 to 75	51 to 75	–	–	–	–	–	–	–
O=C(c1csc2c(O)nc(-c3ccccn3)nc12)N1CCOC(c2ccccc2Cl)C1 (stereo not shown) [drawing 2769]	51 to 75	25 to 50	76 to 100	51 to 75	76 to 100	25 to 50	–	–	–	–	–	–	5 to 10
Oc1nc(-c2ccccn2)nc2sccc12 [drawing 2704]	51 to 75	25 to 50	51 to 75	25 to 50	51 to 75	25 to 50	–	–	–	–	–	–	11 to 30
Oc1nc(-c2ccccn2)nc2c(C3CCC3)csc12 [drawing 3478]	–	–	–	–	–	–	51 to 75	25 to 50	51 to 75	25 to 50	51 to 75	51 to 75	–
Oc1nc(-c2ccccn2)nc2c(-c3cc(Cl)cc(Cl)c3)csc12 [drawing 2848]	25 to 50	25 to 50	1 to 25	1 to 25	25 to 50	25 to 50	–	–	–	–	–	–	–
CC(C)c1csc2c(O)nc(-c3ccccn3)nc12 [drawing 3487]	–	–	–	–	–	–	51 to 75	51 to 75	51 to 75	51 to 75	51 to 75	51 to 75	–
Cc1c(C(=O)O)sc2c(O)nc(-c3ccccn3)nc12 [drawing 3475]	–	–	–	–	–	–	51 to 75	1 to 25	51 to 75	1 to 25	51 to 75	25 to 50	–
Cc1sc2c(O)nc(-c3ccccn3)nc2c1-c1ccccc1 [drawing 2905]	51 to 75	25 to 50	25 to 50	1 to 25	25 to 50	51 to 75	–	–	–	–	–	–	–
COc1cccc(C2CN(C(=O)c3csc4c(O)nc(-c5ccccn5)nc34)CCN2)c1 (stereo not shown) [drawing 2773]	25 to 50	25 to 50	51 to 75	25 to 50	76 to 100	51 to 75	–	–	–	–	–	–	11 to 30

Second part, led by results:

inhibition at 20 µM [1, 3] [%]	inhibition at 20 µM (KRas G12C mutant; [4]) [%]	inhibition at 20 µM [2, 5] [%]	inhibition at 20 µM (KRas wild type; [6]) [%]	inhibition at 20 µM (KRas Q61H mutant; [7]) [%]	inhibition at 20 µM (KRas G12D mutant protein; [8]) [%]	inhibition at 20 µM [1, 9] [%]	inhibition at 20 µM (KRas G12C mutant; [10]) [%]	inhibition at 20 µM [2, 11] [%]	inhibition at 20 µM (KRas wild type; [12]) [%]	inhibition at 20 µM (KRas Q61H mutant; [13]) [%]	inhibition at 20 µM (KRas G12D mutant protein; [14]) [%]	Compound	IC50 [1] [µM]
51 to 75	1 to 25	51 to 75	76 to 100	51 to 75	51 to 75	–	–	–	–	–	–	Cn1nnc2ccc(-c3csc4c(O)nc(-c5ccccn5)nc34)cc21 [drawing 2861]	–
–	–	–	–	–	–	76 to 100	51 to 75	51 to 75	51 to 75	76 to 100	51 to 75	COCCNc1nc(-c2cn(C)cn2)nc2sc(-c3ccncc3)c(-c3ccccc3)c12 [drawing 3530]	–
51 to 75	51 to 75	51 to 75	51 to 75	51 to 75	51 to 75	–	–	–	–	–	–	O=C(c1csc2c(O)nc(-c3ccccn3)nc12)N1CCC(c2ccncc2)C1 (stereo not shown) [drawing 2839]	–
51 to 75	51 to 75	51 to 75	25 to 50	51 to 75	51 to 75	–	–	–	–	–	–	COc1ccnc(-c2nc(O)c3ccsc3n2)c1 [drawing 2708]	5 to 10
–	–	–	–	–	–	76 to 100	51 to 75	76 to 100	51 to 75	76 to 100	76 to 100	CN(C)CCOc1cccc(-c2csc3c(O)nc(-c4ccccn4)nc23)c1 [drawing 3492]	–
51 to 75	51 to 75	51 to 75	51 to 75	51 to 75	51 to 75	–	–	–	–	–	–	O=C(c1cc2nc(-c3ccccn3)nc(O)c2s1)N1CCN(c2ccccc2)CC1 [drawing 2841]	–
–	–	–	–	–	–	51 to 75	51 to 75	51 to 75	25 to 50	76 to 100	76 to 100	Oc1nc(-c2ccccn2)nc2c(-c3cc(CN4CCCC4)ccc3F)csc12 [drawing 3502]	–
25 to 50	1 to 25	51 to 75	25 to 50	25 to 50	25 to 50	–	–	–	–	–	–	Nc1nc(-c2ccccn2)nc2c(-c3ccccc3)csc12 [drawing 2859]	–
51 to 75	25 to 50	51 to 75	25 to 50	51 to 75	51 to 75	–	–	–	–	–	–	Oc1nc(-c2ccccn2)nc2c(-c3ccccc3C(F)F)csc12 [drawing 2883]	–
–	–	–	–	–	–	51 to 75	25 to 50	51 to 75	51 to 75	76 to 100	51 to 75	Nc1cccc(-c2csc3c(O)nc(-c4ccccn4)nc23)n1 [drawing 3514]	–
–	–	–	–	–	–	51 to 75	51 to 75	51 to 75	25 to 50	76 to 100	51 to 75	COc1cnc(-c2cn(C)cn2)nc1O [drawing 3496]	–
–	–	–	–	–	–	51 to 75	51 to 75	51 to 75	25 to 50	51 to 75	51 to 75	Oc1nc(-c2ccccn2)nc2c1c(-c1ccccc1)nn2-c1ccccn1 [drawing 3539]	–
25 to 50	25 to 50	25 to 50	1 to 25	51 to 75	51 to 75	–	–	–	–	–	–	Oc1nc(-c2ccccn2)nc2c(-c3cc(F)ccc3OC(F)F)csc12 [drawing 2860]	–
–	–	–	–	–	–	76 to 100	51 to 75	76 to 100	51 to 75	76 to 100	76 to 100	COc1cnc(-c2nccn2C)nc1O [drawing 3513]	–
–	–	–	–	–	–	51 to 75	1 to 25	51 to 75	1 to 25	76 to 100	51 to 75	Cc1sc2c(O)nc(-c3ccccn3)nc2c1-c1ccccc1Cl [drawing 3515]	–
25 to 50	25 to 50	25 to 50	25 to 50	25 to 50	25 to 50	–	–	–	–	–	–	CNC(=O)c1ccc(-c2csc3c(O)nc(-c4ccccn4)nc23)cc1C [drawing 2885]	–
51 to 75	25 to 50	51 to 75	25 to 50	51 to 75	51 to 75	–	–	–	–	–	–	Oc1nc(-c2ccccn2)nc2c(-c3ccc(F)cc3F)csc12 [drawing 2871]	–
51 to 75	25 to 50	51 to 75	76 to 100	51 to 75	76 to 100	–	–	–	–	–	–	OCC1(c2ccc(-c3csc4c(O)nc(-c5ccccn5)nc34)cc2)CC1 [drawing 2886]	–
